Assay results reported in patent US12612424B2, “HPK1 inhibitors and uses thereof” (Regor Pharmaceuticals, Inc., priority 2019, dated 2026).
Where two headings read alike, the source gives them in different places.

Molecular target: T1, JAK3 (Homo sapiens, UniProt P52333)
T1 construct: purchased Thermo fisher PV3855
Test: JAK3 biochemical assay (ADP-GLO Kinase Assay)
Conditions: for JAKs/HPK1 IC50 Ratio, B* / JAKs/HPK1 IC50 Ratio, N*: ratio of JAK3 IC50 to HPK1 IC50; for JAKs/HPK1 IC50 Ratio, B*: first testing facility; for JAKs/HPK1 IC50 Ratio, N*: second testing facility
Outline: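 Luminescent ADP-Glo readout after a 60 min, 25 °C reaction of JAK3 (0.78 ng) on Poly(E4Y1) (0.2 μg/μL) at 4 μM ATP, Tris pH 7.5 buffer with MgCl2, BSA and DTT. Compounds tested 10 μM down to 0.508 nM in 3-fold steps; % inhibition normalised to DMSO and reference-compound controls, IC50 from three-parameter fit.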

[1] = B*: testing performed in a first testing facility, read-out: JAK3 IC50 (nM) Relative, B*
[2] = N*: testing performed in a second testing facility, read-out: JAK3 IC50 (nM) Relative, N*

T1 sequence (P52333 781-1124 limits assumed): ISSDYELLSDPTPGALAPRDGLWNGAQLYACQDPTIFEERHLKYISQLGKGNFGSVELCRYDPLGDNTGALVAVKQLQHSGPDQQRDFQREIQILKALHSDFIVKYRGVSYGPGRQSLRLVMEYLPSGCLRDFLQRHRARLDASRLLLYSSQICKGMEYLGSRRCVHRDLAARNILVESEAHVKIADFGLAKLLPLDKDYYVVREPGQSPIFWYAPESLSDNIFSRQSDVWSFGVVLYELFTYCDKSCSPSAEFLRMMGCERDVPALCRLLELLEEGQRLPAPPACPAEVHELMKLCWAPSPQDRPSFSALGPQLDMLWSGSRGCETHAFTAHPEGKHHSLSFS

| SMILES | IC50 [1] | JAKs/HPK1 IC50 Ratio, B* | IC50 [2] | JAKs/HPK1 IC50 Ratio, N* |
| --- | --- | --- | --- | --- |
| COc1cc2c(cc1Nc1ncc(Cl)c(N3CC(C(=O)O)c4ccccc43)n1)CN(C)CC2 (single isomer, unassigned) [Example 96] | ≤ 100 nM | 80 | – | – |
| COc1cc2c(cc1Nc1ncc(Cl)c(N3C[C@](C)(C(=O)O)c4ccccc43)n1)CN(C)CC2 (single isomer, unassigned) [Example 118] | > 1000 nM | 80 | – | – |
| COc1cc2c(cc1Nc1ncc(Cl)c(N3C[C@@](C)(C(=O)O)c4ccccc43)n1)CN(C)CC2 (single isomer, unassigned) [Example 119] | ≤ 100 nM | 10 | – | – |
| COc1cc2c(cc1Nc1ncc(Cl)c(N3CC(C)(CC(=O)O)c4ccccc43)n1)CN(C)CC2 (single isomer, unassigned) [Example 147] | > 1000 nM | 132 | – | – |
| COc1cc2c(cc1Nc1ncc(Cl)c(N3CC(C)(CC(=O)O)c4ccccc43)n1)CN(C)CC2 (single isomer, unassigned) [Example 148] | ≤ 100 nM | 209 | – | – |
| COc1cc2c(cc1Nc1ncc(Cl)c(N3CC(C)(CC(=O)O)c4ccc(F)cc43)n1)CN(C)CC2 (single isomer, unassigned) [Example 152] | 100 to 500 nM | 253 | – | – |
| COc1cc2c(cc1Nc1ncc(Cl)c(N3CC(C)(CC(=O)O)c4ccc(F)cc43)n1)CN(C)CC2 (single isomer, unassigned) [Example 153] | > 1000 nM | 358 | – | – |
| COc1cc2c(cc1Nc1ncc(Cl)c(-n3ccc4ccccc43)n1)CN(C)CC2 [Example 2, N-(5-chloro-4-(1H-indol-1-yl)pyrimidin-2-yl)-6-methoxy-2-methyl-1,2,3,4-tetrahydroisoquinolin-7-amine] | – | – | > 1000 nM | 642 |
| COc1cc2c(cc1Nc1ncc(Cl)c(N3CCc4ccccc43)n1)CN(C)CC2 [Example 4, N-(5-Chloro-4-(indolin-1-yl)pyrimidin-2-yl)-6-methoxy-2-methyl-1,2,3,4-tetrahydroisoquinolin-7-amine] | > 1000 nM | 337 | 100 to 500 nM | 601 |
| COc1cc2c(cc1Nc1ncc(Cl)c(-n3cc(C(=O)N(C)C)c4ccccc43)n1)CN(C)CC2 [Example 8] | – | – | > 1000 nM | >2457 |
| COc1cc2c(cc1Nc1ncc(Cl)c(-n3cnc4ccccc43)n1)CN(C)CC2 [Example 9, N-(4-(1H-benzo[d]imidazol-1-yl)-5-chloropyrimidin-2-yl)-6-methoxy-2-methyl-1,2,3,4-tetrahydroisoquinolin-7-amine] | – | – | > 1000 nM | 571 |
| COc1cc2c(cc1Nc1ncc(C(F)(F)F)c(-n3ccc4ccccc43)n1)CN(C)CC2 [Example 10, N-(4-(1H-indol-1-yl)-5-(trifluoromethyl)pyrimidin-2-yl)-6-methoxy-2-methyl-1,2,3,4-tetrahydroisoquinolin-7-amine] | > 1000 nM | >298 | – | – |
| COc1cc2c(cc1Nc1ncc(Cl)c(N3CCc4cc(Cl)ccc43)n1)CN(C)CC2 [Example 13, N-(5-chloro-4-(5-chloroindolin-1-yl)pyrimidin-2-yl)-6-methoxy-2-methyl-1,2,3,4-tetrahydroisoquinolin-7-amine] | 500 to 1000 nM | 62 | – | – |
| CN1CCc2ccc(Nc3ncc(Cl)c(N4CCc5ccccc54)n3)cc2C1 [Example 14, N-(5-Chloro-4-(indolin-1-yl)pyrimidin-2-yl)-2-methyl-1,2,3,4-tetrahydroisoquinolin-7-amine] | ≤ 100 nM | 6 | ≤ 100 nM | 11 |
| CN1CCc2cc(Cl)c(Nc3ncc(Cl)c(N4CCc5ccccc54)n3)cc2C1 [Example 15, 6-Chloro-N-(5-chloro-4-(indolin-1-yl)pyrimidin-2-yl)-2-methyl-1,2,3,4-tetrahydroisoquinolin-7-amine] | > 1000 nM | 174 | – | – |
